Read-outs that look alike come from different tables or passages of the source.
Assays:
HIV-1 [1] = tested on: HIV-1; parameters: method as in PMID 30732940; conditions: cited from earlier work
[2] = target: R263K integrase-DNA complex (Human immunodeficiency virus type 1 group M subtype B, UniProt P04585, R1410K); experiment: Dissociation of 3H-labeled INSTIs from integrase-DNA complexes (scintillation proximity assay); type: binding, HIV-1; conditions: for t1/2 (dissociative half-life): ln 2 divided by mean koff
Experimental: (§1) Dissociation of INSTIs from integrase-DNA complexes was evaluated as previously described ([35]). Briefly, biotinylated viral long-terminal-repeat DNA duplexes were prepared and attached to streptavidin-coated scintillation proximity assay imaging beads. Wild-type and R263K, G118R, or G118R/E138K mutant integrase-DNA-bead complexes were formed, and unbound protein was removed. […] Relative binding (RB) was calculated as the ratio of dissociation signal to high signal and fit with the equation RB = EP + ΔRB(e^−^k^off^t), where EP is the RB endpoint, koff is the dissociation rate constant, ΔRB is the change in RB, and t is time, using the SigmaPlot program (Systat Software, San Jose, CA).

[3] = target: G118R/E138K integrase-DNA complex (Human immunodeficiency virus type 1 group M subtype B, UniProt P04585, E1285K/G1265R); experiment: as above; type: binding, HIV-1; conditions: for t1/2 (dissociative half-life): G118R, E138K integrase-DNA complex, ln 2 divided by mean koff
Experimental: as §1

[4] = target: T1, wild-type integrase-DNA complex (Human immunodeficiency virus type 1 group M subtype B, UniProt P04585); experiment: as above; type: binding, HIV-1; conditions: for t1/2 (dissociative half-life): Wild-type integrase-DNA complex, ln 2 divided by mean koff; for koff: read-out: koff (mean ± SD)
Experimental: as §1

[5] = target: G118R integrase-DNA complex (Human immunodeficiency virus type 1 group M subtype B, UniProt P04585, G1265R); experiment: as above; type: binding, HIV-1; conditions: for t1/2 (dissociative half-life): ln 2 divided by mean koff
Experimental: as §1

[6] = tested on: HIV-1 variant clones (participant-derived integrase); experiment: Clonal integrase phenotyping of variant clones (Monogram Biosciences); type: cell-based; conditions: fold change in IC50 relative to wild-type
[7] = tested on: recombinant viruses containing participant-derived integrase sequences; conditions: for Fold change in dolutegravir sensitivity: fold change in IC50 relative to wild-type, clinical cutoff 4.0
Experimental: HIV-1 genotyping and phenotyping of plasma samples at baseline and the first sample of the 2 required to meet CVW criteria were conducted by Monogram Biosciences (South San Francisco, CA) using PhenoSense Integrase, PhenoSense GT, and GeneSeq Integrase assays, with the PhenoSense GT Plus Integrase assay used as a backup alternative in case of initial resistance assay failure.

HIV-1 [8] = conditions: 12 participants switched at week 48
Excerpt: Confirmed virologic withdrawal criteria were defined as 2 consecutive measurements with a decrease in plasma HIV-1 RNA of <1.0 log10 copies/mL by week 16 (unless HIV-1 RNA levels were <400 copies/mL), plasma HIV-1 RNA levels of ≥400 copies/mL at or after week 24, or plasma HIV-1 RNA levels of ≥400 copies/mL after confirmed HIV-1 RNA levels of <400 copies/mL. Participants who met CVW criteria were withdrawn from the study. For this ad hoc assessment carried out after the week 48 analysis, participants with available data through 12 September 2019 were included.

[9] = target: T1, wild-type integrase-DNA complex; conditions: cited from earlier work
[10] = patient 1, Baseline, R263K clones (3 clones)
[11] = patient 1, Baseline, Wild-type clones (5 clones)
[12] = patient 1, CVW (wk 36), Wild-type clones (8 clones)
[13] = patient 2, Baseline, T66I clone (1 clone)
[14] = patient 2, Baseline, Wild-type clones (7 clones)
[15] = patient 2, CVW (wk 36), G118R clones (8 clones)
[16] = patient 3, Baseline, Wild-type clones (16 clones)
[17] = patient 3, CVW (wk 48), G118R, E138K, R263K clones (13 clones)
[18] = patient 3, CVW (wk 48), H51Y, G118R clones (3 clones)

## C[C@@H]1CCO[C@H]2Cn3cc(C(=O)NCc4ccc(F)cc4F)c(=O)c(O)c3C(=O)N12 [Dolutegravir, dolutegravir]
HIV-1 [1]; through the week 48 analysis
  participants meeting CVW who developed treatment-emergent genotypic and phenotypic INSTI resistance: 2 of 11
HIV-1 [1]; week 48, both in combination with 2 NRTIs
  virologic suppression (HIV-1 RNA levels of <50 copies/mL) versus comparator: superiority to ritonavir-boosted lopinavir
[2]
  fold increase in dissociation rate constant (koff) relative to the wild type: 1.8 fold
  t1/2 (dissociative half-life): 52 h
[2]; listed as dolutegravir
  t1/2 (dissociative half-life): ~50 h
[3]; G118R plus E138K integrase-DNA complex
  fold increase in dissociation rate constant (koff) relative to the wild type: 9.0 fold
[3]
  t1/2 (dissociative half-life): 10.1 h
[4]
  t1/2 (dissociative half-life): 92 h
  koff: 2.1e-06 ± 1e-07 s⁻¹
[5]
  fold increase in dissociation rate constant (koff) relative to the wild type: 8.6 fold
  t1/2 (dissociative half-life): 10.7 h
[5]; listed as dolutegravir
  t1/2 (dissociative half-life): ~10 h
[6]; [10]
  Fold change in median drug sensitivity: 1.81
[6]; [11]
  Fold change in median drug sensitivity: 0.87
[6]; [12]
  Fold change in median drug sensitivity: 0.77
[6]; [13]
  Fold change in median drug sensitivity: 0.33
[6]; [14]
  Fold change in median drug sensitivity: 0.93
[6]; [15]
  Fold change in median drug sensitivity: 30.5
[6]; [16]
  Fold change in median drug sensitivity: 1.08
[6]; [17]
  Fold change in median drug sensitivity: 13
[6]; [18]
  Fold change in median drug sensitivity: 11
[7]; 6 participants with treatment-emergent INSTI resistance-associated substitutions
  change in in vitro dolutegravir resistance versus baseline levels: > 10 fold
[7]; participants with treatment-emergent integrase substitutions (6 participants)
  median fold change in dolutegravir susceptibility at CVW: 25
[7]; patient 1, Baseline, subtype C, INSTI mutation R263R/K
  Fold change in dolutegravir sensitivity: 1.03
[7]; patient 1, Wk 36 (CVW), no INSTI mutation
  Fold change in dolutegravir sensitivity: 0.79
[7]; patient 2, Baseline, subtype B
  Fold change in dolutegravir sensitivity: 1.02
[7]; patient 2, Wk 36 (CVW), G118R
  Fold change in dolutegravir sensitivity: 30
[7]; patient 3, Baseline, subtype C
  Fold change in dolutegravir sensitivity: 1.26
[7]; patient 3, Wk 48 (CVW), H51H/Y, G118R, E138E/K, 263R/K
  Fold change in dolutegravir sensitivity: 15
[7]; patient 4, Baseline, subtype A1, L74I
  Fold change in dolutegravir sensitivity: 0.93
[7]; patient 4, Wk 48 (CVW), L74I, G118G/R, E138E/K, 148Q/R, R263R/K
  Fold change in dolutegravir sensitivity: 20
[7]; patient 5, Baseline, subtype Complex
  Fold change in dolutegravir sensitivity: 0.59
[7]; patient 5, Wk 60 (CVW), E138K, G140S, Q148H, N155H
  Fold change in dolutegravir sensitivity: >106.45
[7]; patient 6, Baseline, subtype C, L74L/I
  Fold change in dolutegravir sensitivity: 0.6
[7]; patient 6, Wk 72 (CVW), T66T/I, L74I, G118R, E138E/K
  Fold change in dolutegravir sensitivity: 22
[7]; patient 7, Baseline, subtype C
  Fold change in dolutegravir sensitivity: 0.98
[7]; patient 7, Wk 168 (CVW), G118R
  Fold change in dolutegravir sensitivity: 28
HIV-1 [8]
  INSTI resistance in participants who switched from ritonavir-boosted lopinavir to the dolutegravir regimen: None of the 12 participants

## Cc1nnc(C(=O)NC(C)(C)c2nc(C(=O)NCc3ccc(F)cc3)c(O)c(=O)n2C)o1 [Raltegravir, raltegravir]
[9]
  t1/2 (dissociative half-life), previously measured: 8.8 h
[2]
  fold increase in dissociation rate constant (koff) relative to the wild type: no change in koff
  t1/2 (dissociative half-life): 9.6 h
[3]
  t1/2 (dissociative half-life): 3.2 h
[4]
  t1/2 (dissociative half-life): 9.2 h
  koff: 2.1e-05 ± 2e-06 s⁻¹
[5]
  fold increase in dissociation rate constant (koff) relative to the wild type: 3.4 fold
  t1/2 (dissociative half-life): 2.7 h
[6]; [10]
  Fold change in median drug sensitivity: 1.09
[6]; [11]
  Fold change in median drug sensitivity: 0.88
[6]; [12]
  Fold change in median drug sensitivity: 0.89
[6]; [13]
  Fold change in median drug sensitivity: 0.58
[6]; [14]
  Fold change in median drug sensitivity: 1.18
[6]; [15]
  Fold change in median drug sensitivity: 24
[6]; [16]
  Fold change in median drug sensitivity: 1.03
[6]; [17]
  Fold change in median drug sensitivity: 2.03
[6]; [18]
  Fold change in median drug sensitivity: 4.43

— paper PMC8765460 (Antimicrobial Agents and Chemotherapy, 2022)
